Experiment [1] addresses T1, SisCsx1 (Saccharolobus islandicus, UniProt F0NE21).
T1 construct: gene SiRe_0884; full-length His-tagged, expressed from pSe-Csx1 in S. islandicus delta-csx1 delta-alpha; 300 kDa hexamer (trimer of dimers); CARF-HTH-HEPN; cOA4 site between two CARF domains; residues printed up to A454
T1 sequence (F0NE21 1-454): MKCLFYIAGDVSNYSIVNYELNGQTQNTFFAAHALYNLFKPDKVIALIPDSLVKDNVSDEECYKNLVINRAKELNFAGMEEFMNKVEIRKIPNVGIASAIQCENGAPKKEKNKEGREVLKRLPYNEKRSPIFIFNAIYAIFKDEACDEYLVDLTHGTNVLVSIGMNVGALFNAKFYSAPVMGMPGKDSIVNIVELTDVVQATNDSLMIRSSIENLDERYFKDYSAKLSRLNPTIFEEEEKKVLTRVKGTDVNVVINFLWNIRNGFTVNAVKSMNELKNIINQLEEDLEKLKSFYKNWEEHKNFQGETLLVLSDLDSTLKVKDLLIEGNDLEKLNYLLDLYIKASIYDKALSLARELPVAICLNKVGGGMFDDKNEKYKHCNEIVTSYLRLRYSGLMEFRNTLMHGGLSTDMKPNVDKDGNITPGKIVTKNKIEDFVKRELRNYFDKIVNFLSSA
The experiment can be described thus: fluorescent dark-RNA cleavage (activation dose response). It is filed as biochemical. As to conditions: 1-128 nM cOA4, 34 nM SisCsx1, 0.2 µM dark-RNA, 70 °C, 3 min; allosteric activator.

Experiment [2] deals with T1, SisCsx1. Put plainly: native gel shift with […]-labelled cOA4. It is filed as binding. (A gel shift assay detects complexes by their altered migration in electrophoresis.)
The target of experiment [3] is Sulfolobus islandicus Csx1 (Sulfolobus islandicus). The experiment can be described thus: SEC-MALS; Superdex 200 Increase 10/300 GL, room temperature, 20 mM Tris pH 8.0, 300 mM NaCl; 50 ul injected at 1.9 mg/ml. (In gel filtration, larger molecules generally elute earlier.)
Experiment [4] addresses Sulfolobus islandicus Csx1 I383A/L390D/R391A mutant (Sulfolobus islandicus). The description is as above.

Consider `Nc1ncnc2c1ncn2[C@@H]1O[C@@H]2COP(=O)(O)O[C@H]3[C@@H](O)[C@H](n4cnc5c(N)ncnc54)O[C@@H]3COP(=O)(O)O[C@H]3[C@@H](O)[C@H](n4cnc5c(N)ncnc54)O[C@@H]3COP(=O)(O)O[C@H]3[C@@H](O)[C@H](n4cnc5c(N)ncnc54)O[C@@H]3COP(=O)(O)O[C@H]2[C@H]1O` [cOA4], for which the “fluorescent dark-RNA cleavage (activation dose response)” value on SisCsx1 [1] was “cleavage of a ssRNA substrate was quantified in the presence of increasing amounts of cOA4”. Besides, the equilibrium dissociation constant (Kd) at SisCsx1 [2] was ~18 nM.
On to Sulfolobus islandicus Csx1 (enzyme), for which the stoichiometry N in experiment [3] stood at 6.
In experiment [4], “Sulfolobus islandicus Csx1 I383A/L390D/R391A mutant (enzyme)” registered a stoichiometry N of 2.

By Kd is commonly meant the constant that tells how readily two partners part at equilibrium. What is called stoichiometry N is a count of units in the complex or per binding partner.

These data come from article PMC6754442, “Structure of Csx1-cOA4 complex reveals the basis of RNA decay in Type III-B CRISPR-Cas” (Nature Communications, 2019).
